From patent publication US6268533A, “Formoterol process” (Sepracor Inc., priority 2000, dated 2001)
Where a name gives a salt, the structure may show the parent alone.

Tests used:
β-adrenoceptors = details: four isomers, in vitro; cited from earlier work
[1] = stability of formoterol salts in the presence of lactose and water; type: physicochemical
Description: Alternatively, if lactose is to be used, as described below, the dry powder must be packaged in such a manner as to exclude moisture.

[2] = total impurities of crystal forms after heating; type: physicochemical; details: for decomposition (total impurities study): 175° C.
Description: The two crystal forms of (R,R)-formoterol tartrate were also studied by measuring the total impurities in the material from each of the experiments in Table 6.

[3] = thermal stability of crystal forms, loss on drying by TGA; type: physicochemical; details: for % LOD by TGA: held 15 min
Procedure: (§1) In each experiment, the polymorph was warmed from 30° C. to the designated temperature at 10° C./min and held at the designated temperature for 15 minutes. The loss on drying (LOD) was measured, and the appearance of the material was noted.

[4] = moisture sorption of salts, water content by Karl Fischer titration; type: physicochemical; details: for moisture sorption compared with other salts or forms (in words): comparison of salts/polymorphs of R,R-formoterol; for water content (moisture sorption): room temperature
Procedure: Water absorption is a major problem in formulating a medicament for therapeutic use, and therefore a salt that has minimal water absorption offers significant advantages. In a series of experiments various salts of R,R-formoterol were prepared.
The salts were exposed to varying levels of humidity at room temperature for 1 to 28 days, and the samples were analyzed for water content by Karl Fischer titration. The values are given in % w/w.

[5] = appearance of sample after TGA; type: physicochemical
Procedure: as §1, with “noted. […] The differences in appearance of each crystal form at the designated temperatures were consistent with the changes in LODs.” for “noted.”

[6] = system: β2 -selective adrenoceptor; details: inhaled; background statement; cited from earlier work
guinea pig trachea = details: four isomers compared; cited from earlier work
[7] = 85% RH (printed RE for the fumarate)

COc1ccc(C[C@H](C)NC[C@@H](O)c2ccc(O)c(NC=O)c2)cc1 [(S,S)]
order of potency (β-adrenoceptors): (R,R)>>(R,S)=(S,R)>(S,S)

COc1ccc(C[C@@H](C)NC[C@@H](O)c2ccc(O)c(NC=O)c2)cc1 [(S,R), reference compound]
order of potency (β-adrenoceptors): (R,R)>>(R,S)=(S,R)>(S,S)

COc1ccc(C[C@@H](C)NC[C@H](O)c2ccc(O)c(NC=O)c2)cc1 (relative stereo) [racemic (R,R/S,S) formoterol hemifumarate hydrate]
incompatibility with lactose on encountering moisture [1]: not observed

COc1ccc(C[C@@H](C)NC[C@H](O)c2ccc(O)c(NC=O)c2)cc1 [P1]
decomposition (total impurities study) [2]: nearly completely decomposed | % LOD by TGA ([3]; 75° C.): 0.092% | % LOD by TGA ([3]; 100° C.): 0.065% | % LOD by TGA ([3]; 125° C.): 0.230% | % LOD by TGA ([3]; 150° C.): 0.390% | LOD in words ([3]; 175° C.): significant LODs, the result of decomposition | % LOD by TGA ([3]; 175° C.): 10.805% | water absorbed ([4]; 85% RH for 11 days): less than 0.1% | moisture sorption compared with other salts or forms (in words) [4]: equivalent in moisture sorption | appearance of sample after TGA ([5]; 75° C.): white | appearance of sample after TGA ([5]; 100° C.): white | appearance of sample after TGA ([5]; 125° C.): white | appearance of sample after TGA ([5]; 150° C.): off-white | appearance of sample after TGA ([5]; 175° C.): brown

COc1ccc(C[C@@H](C)NC[C@H](O)c2ccc(O)c(NC=O)c2)cc1 (relative stereo) [Formoterol, (+/-) N-[2-hydroxy-5-[1-hydroxy-2[[2-(p-methoxyphenyl)-2-propyl]amino]ethyl]phenyl]-formamide]
bronchodilating effect [6]: long lasting bronchodilating effect

COc1ccc(C[C@@H](C)NC[C@H](O)c2ccc(O)c(NC=O)c2)cc1 [(R,R)-Formoterol-HCl]
water content (moisture sorption) ([4]; 11% relative humidity, day 1): 0.5735 % w/w | water content (moisture sorption) ([4]; 11% relative humidity, day 3): 0.553 % w/w | water content (moisture sorption) ([4]; 11% relative humidity, day 8): 0.3656 % w/w | water content (moisture sorption) ([4]; 11% relative humidity, day 14): 0.4385 % w/w | water content (moisture sorption) ([4]; 11% relative humidity, day 28): 0.2644 % w/w | water content (moisture sorption) ([4]; 43% relative humidity, day 1): 0.8502 % w/w | water content (moisture sorption) ([4]; 43% relative humidity, day 3): 1.1636 % w/w | water content (moisture sorption) ([4]; 43% relative humidity, day 8): 0.8781 % w/w | water content (moisture sorption) ([4]; 43% relative humidity, day 14): 0.9802 % w/w | water content (moisture sorption) ([4]; 43% relative humidity, day 28): 0.8133 % w/w | water absorbed ([4]; 75% RH): 1.3-1.4% | water content (moisture sorption) ([4]; 75% relative humidity, day 1): 1.5335 % w/w | water content (moisture sorption) ([4]; 75% relative humidity, day 3): 1.3288 % w/w | water content (moisture sorption) ([4]; 75% relative humidity, day 8): 1.4931 % w/w | water content (moisture sorption) ([4]; 75% relative humidity, day 14): 1.4585 % w/w | water content (moisture sorption) ([4]; 75% relative humidity, day 28): 1.221 % w/w | water content (moisture sorption) ([4]; 89% relative humidity, day 1): 1.4573 % w/w | water content (moisture sorption) ([4]; 89% relative humidity, day 3): 2.419 % w/w | water content (moisture sorption) ([4]; 89% relative humidity, day 8): 1.6487 % w/w | water content (moisture sorption) ([4]; 89% relative humidity, day 14): 1.5739 % w/w | water content (moisture sorption) ([4]; 89% relative humidity, day 28): 1.1139 % w/w | moisture sorption compared with other salts or forms (in words) ([4]; listed as hydrochloride): somewhat better at 43% RE

COc1ccc(C[C@@H](C)NC[C@H](O)c2ccc(O)c(NC=O)c2)cc1 [R,R-formoterol L-tartrate]
hygroscopicity [4]: non-hygroscopic | water content (moisture sorption) ([4]; 11% relative humidity, day 1): 0.0956 % w/w | water content (moisture sorption) ([4]; 11% relative humidity, day 3): 0.1062 % w/w | water content (moisture sorption) ([4]; 11% relative humidity, day 8): 0.0842 % w/w | water content (moisture sorption) ([4]; 11% relative humidity, day 14): 0.1377 % w/w | water content (moisture sorption) ([4]; 11% relative humidity, day 28): 0.0871 % w/w | water content (moisture sorption) ([4]; 43% relative humidity, day 1): 0.1091 % w/w | water content (moisture sorption) ([4]; 43% relative humidity, day 3): 0.1406 % w/w | water content (moisture sorption) ([4]; 43% relative humidity, day 8): 0.0922 % w/w | water content (moisture sorption) ([4]; 43% relative humidity, day 14): 0.104 % w/w | water content (moisture sorption) ([4]; 43% relative humidity, day 28): 0.0705 % w/w | water content (moisture sorption) ([4]; 75% relative humidity, day 1): 0.0895 % w/w | water content (moisture sorption) ([4]; 75% relative humidity, day 3): 0.1367 % w/w | water content (moisture sorption) ([4]; 75% relative humidity, day 8): 0.0732 % w/w | water content (moisture sorption) ([4]; 75% relative humidity, day 14): 0.1146 % w/w | water content (moisture sorption) ([4]; 75% relative humidity, day 28): 0.0691 % w/w | water absorbed ([4]; 89% RH): 0.10 to 0.13% | water content (moisture sorption) ([4]; 89% relative humidity, day 1): 0.1144 % w/w | water content (moisture sorption) ([4]; 89% relative humidity, day 3): 0.1379 % w/w | water content (moisture sorption) ([4]; 89% relative humidity, day 8): 0.1104 % w/w | water content (moisture sorption) ([4]; 89% relative humidity, day 14): 0.1097 % w/w | water content (moisture sorption) ([4]; 89% relative humidity, day 28): 0.1122 % w/w | water content (moisture sorption) ([4]; 93% relative humidity, day 1): 0.1346 % w/w | water content (moisture sorption) ([4]; 93% relative humidity, day 3): 0.2077 % w/w | water content (moisture sorption) ([4]; 93% relative humidity, day 8): 0.1076 % w/w | water content (moisture sorption) ([4]; 93% relative humidity, day 14): 0.2972 % w/w | water content (moisture sorption) ([4]; 93% relative humidity, day 28): 0.1765 % w/w | moisture sorption compared with other salts or forms (in words) ([4]; listed as L-tartrate of R,R-formoterol): superior to all of the salts tested

COc1ccc(C[C@@H](C)NC[C@H](O)c2ccc(O)c(NC=O)c2)cc1 [(R,R)-Formoterol-SO4]
water content (moisture sorption) ([4]; 11% relative humidity, day 1): 1.2251 % w/w | water content (moisture sorption) ([4]; 11% relative humidity, day 3): 1.3892 % w/w | water content (moisture sorption) ([4]; 11% relative humidity, day 8): 0.9574 % w/w | water content (moisture sorption) ([4]; 11% relative humidity, day 14): 1.209 % w/w | water content (moisture sorption) ([4]; 11% relative humidity, day 28): 0.7866 % w/w | water absorbed ([4]; 43% relative humidity): more than 3 % by weight | water content (moisture sorption) ([4]; 43% relative humidity, day 1): 2.9647 % w/w | water content (moisture sorption) ([4]; 43% relative humidity, day 3): 3.4998 % w/w | water content (moisture sorption) ([4]; 43% relative humidity, day 8): 3.4048 % w/w | water content (moisture sorption) ([4]; 43% relative humidity, day 14): 2.2985 % w/w | water content (moisture sorption) ([4]; 43% relative humidity, day 28): 3.1595 % w/w

COc1ccc(C[C@@H](C)NC[C@H](O)c2ccc(O)c(NC=O)c2)cc1 [(R,R)-isomer]
order of potency (β-adrenoceptors): (R,R)>>(R,S)=(S,R)>(S,S) | relaxing activity, rank of potency (guinea pig trachea): most potent

COc1ccc(C[C@@H](C)NC[C@H](O)c2ccc(O)c(NC=O)c2)cc1 [fumarate]
water absorbed [4, 7]: 6% | moisture sorption compared with other salts or forms (in words) [4]: somewhat better at 43% RE

COc1ccc(C[C@H](C)NC[C@H](O)c2ccc(O)c(NC=O)c2)cc1 [(R,S), reference compound]
order of potency (β-adrenoceptors): (R,R)>>(R,S)=(S,R)>(S,S)

COc1ccc(C[C@@H](C)NC[C@H](O)c2ccc(O)c(NC=O)c2)cc1 [P2]
total impurities compared with P1 ([2]; 100° C. and higher): higher levels of total impurities | decomposition (total impurities study) [2]: nearly completely decomposed | % LOD by TGA ([3]; 75° C.): 0.020% | % LOD by TGA ([3]; 100° C.): 0.045% | % LOD by TGA ([3]; 125° C.): 0.305% | % LOD by TGA ([3]; 150° C.): 1.230% | LOD in words ([3]; 175° C.): significant LODs, the result of decomposition | % LOD by TGA ([3]; 175° C.): 12.990% | water absorbed ([4]; 85% RH for 11 days): less than 0.1% | moisture sorption compared with other salts or forms (in words) [4]: equivalent in moisture sorption | appearance of sample after TGA ([5]; 75° C.): white | appearance of sample after TGA ([5]; 100° C.): white | appearance of sample after TGA ([5]; 125° C.): off-white | appearance of sample after TGA ([5]; 150° C.): tan | appearance of sample after TGA ([5]; 175° C.): brown

COc1ccc(C[C@@H](C)NC[C@H](O)c2ccc(O)c(NC=O)c2)cc1 [D-tartrate]
water absorbed [4, 7]: 0.4-0.5% | moisture sorption compared with other salts or forms (in words) [4]: somewhat better than the hydrochloride
